The values that follow come from patent publication US10722441B2, “Noreugenin glycoside derivatives” (Universitaet Hamburg, priority 2016, dated 2020).

For this experiment, the system named is reconstituted human epidermis with melanocytes of phototype II. Put plainly: Tanning properties in reconstituted human epidermis with melanocytes; semiquantification of melanin content by Fontana-Masson staining and image analysis. It is filed as cell-based. To be noted: for Change of melanin content / pigmentation, in words: IBMX 100 μM vs untreated controls. The procedure:
The epidermis with melanocytes of phototype II is reconstituted in an air/liquid interface system (directly at the air-liquid interface) in a culture medium from day 0 to day 4 for a complete differentiation. The culture is then continued from day 4 to day 14 in this same medium but without bovine pituitary extract (BPE). The test preparations were administered in the […] from day 4 to day 14. The medium and the test preparations are each added on day 4, day 7 and day 11. DMSO and THF are tested in parallel and IBMX (100 μM) is used as the positive reference.
After embedding in paraffin, a Fontana-Masson staining of the tissue sections is performed. The microscope slides are covered with a special medium and examined using a light microscope of the Leica DM2000 type with a digital camera. After staining, images are recorded and a quantification is performed by image analysis (on the basis of 12 images). For quantification of the melanin content in each image, the Leica QWin3 software is used. Two measurements are carried out. The first measurement gives the total intensity of the coloration, i.e., a lighter or darker melanin is reflected. The second measurement relates to the marked image area, i.e., the area of the epidermis containing the melanin. In these measurements all cell layers except the stratum corneum are included.
The procedure used was the same as that carried out in example 1 and 2. After determining the cytotoxic concentrations, substance (Ia) is tested at 8 μM, substance (Ib) at 40 μM (solvent: 0.1% THF) and substance (IIa) at 20 μM (solvent: 0.1% DMSO).
After determining the cytotoxic concentrations of these substances, substance (Ib) is tested at 40 μM in DMSO (0.1%), substance (IIa) is tested at 20 μM in DMSO (0.1%), the mixture of (Ib)/(IIa) is tested at 40/20 μM in DMSO (0.1% and rhamnose is tested at 40 μM in THF (0.2%).

[1] abbreviates: second experiment, Ib 40 μM and IIa 20 μM vs DMSO, mixture 40/20 μM, rhamnose 40 μM.
[2] abbreviates: first experiment, Ia 8 μM, Ib 40 μM vs THF, IIa 20 μM vs DMSO.

Take `C[C@H](O)[C@H](O)[C@@H](O)[C@@H](O)C=O` [Rhamnose, rhamnose, reference compound]: the “Quantification after Fontana-Masson staining, relative to the untreated controls” value (second experiment, 40 μM in THF (0.2%)) was found to be 109%. Besides, under setting [1], the “Change of melanin content / pigmentation, in words” value is given as “tendency to increase melanin synthesis is only faintly pronounced”.
For the compound `Cc1cc(=O)c2c(O)cc(O[C@@H]3O[C@@H](C)[C@H](O)[C@@H](O)[C@H]3O)cc2o1` [Substance (Ib), 7-[(6-deoxy-α-L-mannopyranosyl)oxy]-5-hydroxy-2-methyl-4H-1-benzopyran-4-one], the “Quantification after Fontana-Masson staining, relative to the untreated controls” value is given as 174% (p < 0.05) (first experiment, 40 μM, solvent 0.1% THF, day 4 to day 14) and 167% (p < 0.01) (second experiment, 40 μM in DMSO (0.1%)). The “Change of melanin content / pigmentation, in words” value under setting [2] is on record as “significant increase” and the “Change of melanin content / pigmentation, in words” value under setting [1] is given as “significant increase”.
As for `Cc1cc(=O)c2c(O)cc(O[C@@H]3O[C@H](CO)[C@@H](O)[C@H](O)[C@H]3O)cc2o1` [Substance (Ia), 7-(β-D-glucopyranosyloxy)-5-hydroxy-2-methyl-4H-1-benzopyran-4-one], the “Quantification after Fontana-Masson staining, relative to the untreated controls” value (first experiment, 8 μM, day 4 to day 14) is 125%. The “Change of melanin content / pigmentation, in words” value under setting [2] is “unambiguous tendency to increase pigmentation”.
With `CC(C)Cn1c(=O)n(C)c(=O)c2[nH]cnc21` [IBMX, reference compound], the “Change of melanin content / pigmentation, in words” value reads like this: under setting [2], “significant increase”; under setting [1], “significant increase”. Further, the “Quantification after Fontana-Masson staining, relative to the untreated controls” value by setting is: (first experiment, IBMX 100 μM, positive reference, day 4 to day 14) 152% (p < 0.05); (second experiment, IBMX 100 μM, positive reference) 150% (p < 0.01).
`Cc1cc(=O)c2c(O[C@@H]3O[C@@H](C)[C@H](O)[C@@H](O)[C@H]3O)cc(O)cc2o1` [Substance (IIa), 5-[(6-deoxy-α-L-mannopyranosyl)oxy]-7-hydroxy-2-methyl-4H-1-benzopyran-4-one]: the “Quantification after Fontana-Masson staining, relative to the untreated controls” value is listed as 143% (p < 0.05) (first experiment, 20 μM, solvent 0.1% DMSO, day 4 to day 14) and 147% (p < 0.05) (second experiment, 20 μM in DMSO (0.1%)). The “Change of melanin content / pigmentation, in words” value was “significant increase” under setting [2] and “significant increase” under setting [1].
